# In ChEMBL document CHEMBL1201862, “PubChem BioAssay data set” (2004):
#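 Step 1: Grow cells in 96-well plates. Step 2: Expose to compound for 48 hours at 5 concentrations. Step 3: Interpolate endpoints linearly; if unreached, use highest concentration. At the GI50, growth is halved.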 Activity calls are given as the source filed them. No stated cut-off is given here; in the data, active = GI50 up to about 1.1 µM and inactive = higher.
# Columns and labels:
# Test in all cases: inhibition of tumour cell growth, NCI panel, 48 h
# 786-0 = test system: 786-0
# DU-145 = test system: DU-145
# HCT-116 = test system: HCT-116
# HOP-62 = test system: HOP-62
# HT-29 = test system: HT-29
# MCF7 = test system: MCF7
# MOLT-4 = test system: MOLT-4
# Malme-3M = test system: Malme-3M
# NCI-H522 = test system: NCI-H522
# OVCAR-3 = test system: OVCAR-3
# OVCAR-5 = test system: OVCAR-5
# PC-3 = test system: PC-3
# SF-295 = test system: SF-295
# SK-MEL-28 = test system: SK-MEL-28
# SNB-19 = test system: SNB-19
# SNB-75 = test system: SNB-75
# T47D = test system: T47D
# UACC-62 = test system: UACC-62
# HCC 2998 = test system: HCC 2998
SMILES,GI50 (786-0),GI50 (DU-145),GI50 (HCT-116),GI50 (HOP-62),GI50 (HT-29),GI50 (MCF7),GI50 (MOLT-4),GI50 (Malme-3M),GI50 (NCI-H522),GI50 (OVCAR-3),GI50 (OVCAR-5),GI50 (PC-3),GI50 (SF-295),GI50 (SK-MEL-28),GI50 (SNB-19),GI50 (SNB-75),GI50 (T47D),GI50 (UACC-62),GI50 (HCC 2998)
O=C(Nc1sccc1S(=O)(=O)c1ccc(Cl)cc1)c1ccc(Cl)cc1Cl,> 100 µM (inactive),> 100 µM (inactive),> 100 µM (inactive),> 100 µM (inactive),> 76.2 µM (inactive),44.6 µM (inactive),> 85.9 µM (inactive),> 100 µM (inactive),34.1 µM (inactive),28.2 µM (inactive),> 84.5 µM (inactive),> 100 µM (inactive),37.8 µM (inactive),> 100 µM (inactive),> 100 µM (inactive),> 100 µM (inactive),19.1 µM (inactive),> 62.2 µM (inactive),–
CC1CC[C@@]23CCC4(C)[C@@](C=CC5[C@@]6(C)CCC(=O)C(C)(C)C6CC[C@]54C)(OC2=O)[C@@H]3[C@H]1C (some centres undefined),24.3 µM (inactive),–,6.68 µM (inactive),16.9 µM (inactive),16.4 µM (inactive),–,7.29 µM (inactive),20.9 µM (inactive),11 µM (inactive),11.9 µM (inactive),–,–,18.8 µM (inactive),20.4 µM (inactive),29.8 µM (inactive),23.6 µM (inactive),–,12.2 µM (inactive),–
N#CC(C#N)=NNc1ccc2cn[nH]c2c1,43.6 µM (inactive),29 µM (inactive),20.5 µM (inactive),> 100 µM (inactive),91.2 µM (inactive),31.1 µM (inactive),21.5 µM (inactive),28.4 µM (inactive),12.2 µM (inactive),23.9 µM (inactive),> 100 µM (inactive),> 100 µM (inactive),> 100 µM (inactive),> 100 µM (inactive),> 100 µM (inactive),–,35.7 µM (inactive),> 100 µM (inactive),–
CCOC(=O)Nc1cc2c(c(N)n1)N=C(c1ccc(OC)cc1)CN2,0.00363 µM (active),0.000407 µM (active),0.000251 µM (active),0.00015 µM (active),0.000637 µM (active),0.00434 µM (active),< 0.0001 µM (active),0.0101 µM (active),0.00277 µM (active),0.00044 µM (active),0.0158 µM (active),–,0.000269 µM (active),0.0057 µM (active),0.000349 µM (active),0.000188 µM (active),0.582 µM (active),< 0.0001 µM (active),0.000925 µM (active)
NC(=O)C(=Cn1c(=S)[nH]c2ccc([N+](=O)[O-])cc21)C(N)=O,> 100 µM (inactive),> 100 µM (inactive),> 100 µM (inactive),> 100 µM (inactive),> 100 µM (inactive),–,> 100 µM (inactive),–,–,> 100 µM (inactive),> 100 µM (inactive),–,> 100 µM (inactive),> 100 µM (inactive),> 100 µM (inactive),97.9 µM (inactive),> 100 µM (inactive),> 100 µM (inactive),> 100 µM (inactive)
c1ccc(C[P+]2(c3ccccc3)c3ccccc3-c3ccccc32)cc1,> 100 µM (inactive),> 100 µM (inactive),> 100 µM (inactive),> 100 µM (inactive),–,> 100 µM (inactive),> 100 µM (inactive),–,> 100 µM (inactive),> 100 µM (inactive),–,> 100 µM (inactive),> 100 µM (inactive),> 100 µM (inactive),> 100 µM (inactive),> 100 µM (inactive),–,> 100 µM (inactive),> 100 µM (inactive)
COc1ccc(CCC2c3cc(OC)c(OC)cc3CCN2C)cc1OC (centres undefined),> 100 µM (inactive),–,> 100 µM (inactive),> 100 µM (inactive),> 100 µM (inactive),–,> 100 µM (inactive),> 100 µM (inactive),> 100 µM (inactive),> 100 µM (inactive),> 100 µM (inactive),–,> 100 µM (inactive),> 100 µM (inactive),> 100 µM (inactive),> 100 µM (inactive),–,> 100 µM (inactive),> 100 µM (inactive)
O=c1c2ccccc2nc(-c2ccc(Cl)cc2)n1O,22.2 µM (inactive),89.9 µM (inactive),29.7 µM (inactive),9.12 µM (inactive),45.7 µM (inactive),20 µM (inactive),17.9 µM (inactive),–,15.3 µM (inactive),40.2 µM (inactive),47.4 µM (inactive),33.9 µM (inactive),27.5 µM (inactive),–,25.2 µM (inactive),38.2 µM (inactive),> 100 µM (inactive),35.9 µM (inactive),–
NCCNc1ncnc2ccc(Cl)cc12,> 100 µM (inactive),> 100 µM (inactive),67.8 µM (inactive),> 100 µM (inactive),66.8 µM (inactive),96.8 µM (inactive),–,> 100 µM (inactive),57.7 µM (inactive),> 100 µM (inactive),> 100 µM (inactive),75.5 µM (inactive),> 100 µM (inactive),> 100 µM (inactive),> 100 µM (inactive),97.5 µM (inactive),> 100 µM (inactive),93.5 µM (inactive),–
CC(=O)Oc1c(N2CCCCC2)c(C(=O)c2ccccc2)c(O)c2ccn(N(C)C)c12,17.5 µM (inactive),21.8 µM (inactive),9.51 µM (inactive),27.2 µM (inactive),14.6 µM (inactive),10.5 µM (inactive),0.736 µM (active),17.3 µM (inactive),–,19.6 µM (inactive),25.5 µM (inactive),10.9 µM (inactive),15 µM (inactive),19.1 µM (inactive),25.4 µM (inactive),13.2 µM (inactive),–,15 µM (inactive),18.5 µM (inactive)
COc1ccc(O[C@H](CO)C[C@@H]2COC(C)(C)O2)cc1,> 100 µM (inactive),> 100 µM (inactive),> 100 µM (inactive),> 100 µM (inactive),> 100 µM (inactive),> 100 µM (inactive),> 100 µM (inactive),> 100 µM (inactive),> 100 µM (inactive),> 100 µM (inactive),> 100 µM (inactive),> 100 µM (inactive),> 100 µM (inactive),> 100 µM (inactive),> 100 µM (inactive),> 100 µM (inactive),–,> 100 µM (inactive),> 100 µM (inactive)
CCN(CC)C(=S)S [DITIOCARB SODIUM],67.9 µM (inactive),–,0.0323 µM (active),> 100 µM (inactive),0.216 µM (active),–,–,19.1 µM (inactive),0.103 µM (active),–,> 100 µM (inactive),–,> 79.6 µM (inactive),> 47.9 µM (inactive),> 100 µM (inactive),0.261 µM (active),–,0.388 µM (active),33.6 µM (inactive)
C=CCc1c(O)c2ccccc2[nH]c1=O,> 100 µM (inactive),> 100 µM (inactive),> 100 µM (inactive),> 100 µM (inactive),> 100 µM (inactive),> 100 µM (inactive),> 100 µM (inactive),> 100 µM (inactive),> 100 µM (inactive),> 100 µM (inactive),> 100 µM (inactive),> 100 µM (inactive),> 100 µM (inactive),> 100 µM (inactive),> 100 µM (inactive),> 100 µM (inactive),–,–,> 100 µM (inactive)
Cc1nnc(N/N=C2/C(=O)Nc3c(Cl)cc(Cl)cc32)n1N,> 100 µM (inactive),–,> 100 µM (inactive),> 100 µM (inactive),> 100 µM (inactive),–,44.8 µM (inactive),> 100 µM (inactive),34.2 µM (inactive),> 100 µM (inactive),> 100 µM (inactive),–,> 100 µM (inactive),> 100 µM (inactive),> 100 µM (inactive),–,–,> 100 µM (inactive),> 100 µM (inactive)
Cc1ccc(NC(=O)CC2SC(=N)NC2=O)cc1C (centres undefined),> 100 µM (inactive),–,> 100 µM (inactive),> 100 µM (inactive),> 100 µM (inactive),–,> 100 µM (inactive),> 100 µM (inactive),> 100 µM (inactive),> 100 µM (inactive),> 100 µM (inactive),–,> 100 µM (inactive),> 100 µM (inactive),> 100 µM (inactive),> 100 µM (inactive),–,> 100 µM (inactive),75 µM (inactive)
C=C1[C@@H](OC(C)=O)/C=C/C2C3C(=O)[C@@](C)(OC(C)=O)[C@H]([C@H](OC(C)=O)[C@]4(O)[C@@H](C)C(=O)O[C@H]4[C@H]1Cl)[C@@]23C (some centres undefined),> 100 µM (inactive),> 100 µM (inactive),> 100 µM (inactive),> 100 µM (inactive),> 100 µM (inactive),–,> 100 µM (inactive),> 100 µM (inactive),> 100 µM (inactive),> 100 µM (inactive),> 100 µM (inactive),> 100 µM (inactive),> 100 µM (inactive),> 100 µM (inactive),> 100 µM (inactive),> 100 µM (inactive),> 100 µM (inactive),> 100 µM (inactive),> 100 µM (inactive)
COc1ccc(C[N+](C)(C)N)cc1OC,> 10 µM (inactive),> 10 µM (inactive),> 10 µM (inactive),> 10 µM (inactive),> 10 µM (inactive),> 10 µM (inactive),> 10 µM (inactive),> 10 µM (inactive),> 10 µM (inactive),> 10 µM (inactive),> 10 µM (inactive),> 10 µM (inactive),> 10 µM (inactive),> 10 µM (inactive),> 10 µM (inactive),> 10 µM (inactive),–,> 100 µM (inactive),> 10 µM (inactive)
